Test results from PubChem BioAssay AID179 (DTP/NCI, 2004).
Activity calls are given as the source filed them.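 The calls were made as follows: active = compounds giving half or more protection of infected cells from virus-caused growth loss, again on retest; inactive = the rest.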 *1 amine or outer side, *2 acyl side, *3 side chain or, on linkers, in order; H or OH if unused. Where a SMILES comes first, the peptide text is derived from it. Bridges are numbered along the chain shown (N, C = ends). Roman numbers before positions name the chains, in order. [ ]: non-standard residue; d: D form. The star is where a group is joined. Actinocin(9to1) = Cc1c2oc3c(C)ccc(C(=O)[*:1])c3nc-2c(C(=O)[*:2])c(N)c1=O; aThr = C[C@H](O)[C@H](N)C(=O)O; NMeV = CN[C@H](C(=O)O)C(C)C; Boc = CC(C)(C)OC(=O)*; Sar = CNCC(=O)O

System: CEM cells HIV-1 protection, formazan growth assay
Experiment: NCI AIDS Antiviral Assay
Conditions: for IC50: measured here: growth of uninfected CEM cells
Outline: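 CEM (human) cells, HIV-1 infected vs uninfected, 5-point dosing, formazan growth read-out. Retest threshold 50% protection.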

| SMILES | EC50 | IC50 | outcome |
| --- | --- | --- | --- |
| COc1ccc(OC)c(/C=C(/C#N)c2ccccc2)c1 | > 10.2 µM | > 10.2 µM | – |
| CCN1CC2(OC(=O)c3ccccc3NC(C)=O)CCC(OC)C34C1C(CC23)C1(O)CC(OC)C2CC4C1(O)C2OC (stereo unspecified) | – | – | inactive |
| COc1ccc(COCCOCc2nc(C#N)c(N)o2)cc1 | > 200 µM | 135 µM | – |
| COc1ccc2c(ccc3[nH]c4c(C)cnc(NCCCN)c4c32)c1 | > 2 µM | 0.219 µM | – |
| CCN=C1Nc2ccccc2-n2c(nn3nc4ccccc4c23)N1CC | 5.37 µM | > 200 µM | – |
| CN(C)c1ccc(C=NC23CC4CC(CC(C4)C2)C3)cc1 | > 63.1 µM | > 63.1 µM | – |
| CN(CCC#N)c1ccc(/C=C(\C#N)c2ccc(Cl)cc2)cc1 | > 200 µM | 15.5 µM | – |
| Cc1c2oc3c(C)ccc(C(=O)N[C@@H]4C(=O)N[C@H](C(C)C)C(=O)N5CCC[C@H]5C(=O)N(C)CC(=O)N(C)[C@@H](C(C)C)C(=O)O[C@H]4C)c3nc-2c(C(=O)N[C@@H]2C(=O)N[C@H](C(C)C)C(=O)N3CCC[C@H]3C(=O)N(C)CC(=O)N(C)[C@@H](C(C)C)C(=O)O[C@H]2C)c(N)c1=O (I: [aThr][dV]P[Sar][NMeV] / II: [aThr][dV]P[Sar][NMeV]; ester I:1-I:C, II:1-II:C; linker I:N-II:N via Actinocin(9to1)) | > 0.302 µM | 9.55e-05 µM | – |
| O=NC1C(Cl)C2CC1C1COCC21 (stereo unspecified) | > 1230 µM | > 1230 µM | – |
| CCSCCCN(CCCSCC)CCCSCC | > 155 µM | > 155 µM | – |
| CN(C)C(=C1c2cc([N+](=O)[O-])ccc2-c2ccc([N+](=O)[O-])cc21)N(C)C | > 200 µM | 10.7 µM | – |
| O=C1c2ccccc2OP(=O)(OCC(F)(F)F)OC1(C(F)(F)F)C(F)(F)F (stereo unspecified) | > 575 µM | 126 µM | – |
| CC(=O)Nc1nc(NC(C)=O)c(N=O)c(NC(C)=O)n1 | > 200 µM | 115 µM | – |
| CCCCCCCCCCCc1nnc(N)o1 | – | – | inactive |
| Cn1nc(C(N)=O)c(=O)[nH]c1=O | > 200 µM | > 200 µM | – |
| O=c1[nH]cnc2c1ncn2[C@@H]1C[C@H]1CO | – | – | inactive |
| Oc1cc(Cl)cc2cccnc12 | – | – | inactive |
| Cc1ccc(S(=O)(=O)N/N=C2/CCC3(O)CC2(C)CCC2[C@H]3CC2(C)C)cc1 (stereo partly specified) | > 200 µM | 33.9 µM | – |
| Cc1cn(C2CC3C(COC(C)N3O)O2)c(=O)[nH]c1=O (stereo unspecified) | > 200 µM | > 200 µM | – |
| O=C1CC2(CCN(CC3COc4ccccc4O3)CC2)C(=O)N1N1CCCCCC1 (stereo unspecified) | > 200 µM | 72.4 µM | – |
| O=C(Nc1cccc([N+](=O)[O-])c1)C(=O)C(C(=O)c1ccccc1F)C1OC(=O)C2C=CC=CC21 (stereo unspecified) | > 282 µM | 4.07 µM | – |
| CC(=O)Nc1ccc(-c2nnc(SCC(=O)Nc3ccccc3[N+](=O)[O-])o2)cc1 | > 24 µM | > 24 µM | – |
| CCc1c2c(c(C)n1C)C(c1ccccc1)=NCC(=O)N2 | > 468 µM | 295 µM | – |
| Cc1ccc(C(=O)Nc2ccccc2)cc1N=NN(C)C | > 331 µM | 288 µM | – |
| CN(C(=O)c1ccc2c(c1)sc1c(=O)n(C)c3ccccc3c12)c1ccccc1 | > 200 µM | > 200 µM | – |
| Nc1nc2c(C(=O)O)c3ccc([N+](=O)[O-])cc3c(=O)n2c2ccccc12 | > 200 µM | 15.8 µM | – |
| Cc1c2ccnc(C(N)=O)c2c(C)c2c1[nH]c1ccccc12 | – | – | inactive |

| SMILES | EC50 | IC50 | outcome |
| --- | --- | --- | --- |
| C=CCCCC(C#N)(c1ccccc1)N1CCCC1 (stereo unspecified) | – | – | inactive |
| CCOC(=O)CC[C@H](NC(=O)N[C@H](C)c1ccccc1)C(=O)OCC | > 200 µM | 39.8 µM | – |
| COC(=O)c1nc(-c2nc(CCNC(=O)OC(C)(C)C)sc2Cl)sc1Cl | > 4.27 µM | > 4.27 µM | – |
| CN(C)CC1CCC(CN(C)C)C1=NO (stereo unspecified) | – | – | inactive |
| COc1ccc(-n2c(SC(CN3CCOCC3)CN3CCCC3=O)nc3ccccc3c2=O)cc1 (stereo unspecified) | > 200 µM | 56.2 µM | – |
| CN(C)Cc1cc(N=Nc2ccc(Cl)c(Cl)c2)ccc1O | > 200 µM | 18.6 µM | – |
| CC(=O)OCC1OC(OC2C(COC(C)=O)OC(Sc3ccccc3C)C(OC(C)=O)C2OC(C)=O)C(OC(C)=O)C(OC(C)=O)C1OC(C)=O (stereo unspecified) | > 25.1 µM | > 25.1 µM | – |
| CC(C)N=c1cc2n(-c3ccc(Cl)cc3)c3ccccc3nc-2cc1Nc1ccc(Cl)cc1 | > 100 µM | 9.12 µM | – |
| COc1ccc(-c2c(C#N)c(O)n(NS(=O)(=O)c3ccc(C)cc3)c(=O)c2C#N)cc1 | > 200 µM | 56.2 µM | – |
| CC1(C)[C@@H]2C[C@H]1C(Cc1ccc(C[C@H]3c4cc(-c5ccccn5)ncc4[C@H]4C[C@@H]3C4(C)C)cc1)c1cc(-c3ccccn3)ncc12 (stereo partly specified) | > 20 µM | 0.813 µM | – |
| CCOC(=O)Nn1c(C)nnc1CC#N | > 200 µM | > 200 µM | – |
| O=C(c1ccc(Cl)cc1)C1N=NCC1c1ccccc1 (stereo unspecified) | > 200 µM | 75.9 µM | – |
| CCOC(=O)c1ccc(CSc2ccccc2)c([N+](=O)[O-])c1 | > 58.9 µM | > 58.9 µM | – |
| C=CCN1CN(c2ccccc2)C2(CCN(CCCC3(c4ccc(F)cc4)OCCO3)CC2)C1=O | > 200 µM | 11.5 µM | – |
| [Se]c1nc2ccccc2o1 | > 224 µM | 53.7 µM | – |
| CC(=O)Oc1c(C)c(-c2ccccc2)c(C)c(-c2ccccc2)c1C(=S)c1ccccc1 | – | – | inactive |
| COC(=O)c1nn2c(=O)[nH]c3ccccc3c2c1C(=O)OC | > 562 µM | 331 µM | – |
| S=C(Nc1c2c(nc3ccccc13)CCCC2)Nc1c2c(nc3ccccc13)CCCC2 | > 200 µM | > 200 µM | – |
| C=C(C)[C@@H]1CC[C@]2(CNC(=O)CC3(CC(=O)O)CCCC3)CC[C@]3(C)[C@H](CC[C@@H]4[C@@]5(C)CC[C@H](NC(=O)CC6(CC(=O)O)CCCC6)C(C)(C)[C@@H]5CC[C@]43C)[C@@H]12 | > 200 µM | 13.5 µM | – |
| CN1C(=O)/C(=C2\SC(=O)N(CN3CCOCC3)C2=O)c2ccccc21 | > 200 µM | 37.2 µM | – |
| CN(C)c1ccc(/C=C/c2ccc(/C=C/c3ccc(N(C)C)cc3)cc2)cc1 | – | – | inactive |
| C=C(C)CNC(=S)N(N)c1ccc2ccccc2c1 | > 200 µM | 58.9 µM | – |
| Cn1cc(C(N)=O)ccc1=N | > 200 µM | > 200 µM | – |
| Cc1cc2c(C(C)C)c(O)c(O)c3coc(/c1=c1/c(C)cc4c(C(C)C)c(=O)c(=O)c5coc1c45)c32 | > 53.7 µM | 8.91 µM | – |
| C[CH2][Sn]1([CH2]C)[O]C2C(O)OC(CO)C(O)C2[O]1 (stereo unspecified) | > 200 µM | 3.16 µM | – |
| Nc1c(Br)cc2c(c1Br)Cc1cc(Br)ccc1-2 | > 200 µM | > 200 µM | – |
| OC(Cn1cncn1)(Cn1cncn1)c1ccc(Cl)cc1Cl | > 741 µM | 490 µM | – |

| SMILES | EC50 | IC50 | outcome |
| --- | --- | --- | --- |
| C=C(C)C(=O)N1c2ccc(OC)cc2CC1C(=O)OCC (stereo unspecified) | > 200 µM | > 200 µM | – |
| CC(=O)O[C@H]1CC2CCCC2C2C(=O)OC(=O)C21 (stereo partly specified) | – | – | active |
| O=[N+]([O-])c1cc(-c2nnc(C34CC5CC(CC(C5)C3)C4)o2)cc([N+](=O)[O-])c1 | > 200 µM | > 200 µM | – |
| O=C(NNC(=O)c1ccccc1O)c1ccccc1O | > 0.2 µM | 0.102 µM | – |
| CNC(=O)CCCNC(=O)CCCC(=O)N(C)C | > 200 µM | > 200 µM | – |
| COC(=O)C(Cc1c[nH]c2ccccc12)NC(=O)C(Cc1c[nH]c2ccccc12)NC(=O)C(Cc1c[nH]c2ccccc12)NC(=O)C(Cc1c[nH]c2ccccc12)NC(=O)C(Cc1c[nH]c2ccccc12)NC(=O)OC(C)(C)C (stereo unspecified) (Boc-WWWWW-OMe; configuration not given here) | > 200 µM | 27.5 µM | – |
| CCOC(=O)C(=CNc1ccc(F)c(F)c1)C(=O)OCC | > 200 µM | 79.4 µM | – |
| COc1cc(N=Nc2cc(S(=O)(=O)O)cc3cc(S(=O)(=O)O)cc(O)c23)c(C)cc1N=Nc1c(S(=O)(=O)O)cc2cc(Nc3ccccc3)ccc2c1O | – | – | inactive |
| Cc1cccc(NC(=O)Cc2nc3ccccc3s2)c1C | > 17.8 µM | > 17.8 µM | – |
| N#Cc1c(-c2ccccc2)cn2c1[nH]c(=O)c1ccccc12 | > 200 µM | 30.2 µM | – |
| c1ccc(CSP234N5CCN2CCN3CCN4CC5)c(CSP234N5CCN2CCN3CCN4CC5)c1 | > 100 µM | 39.8 µM | – |
| O=C(Nc1ccc(CCC2=NCCCN2)cc1)c1ccc(C(=O)Nc2ccc(CCC3=NCCCN3)cc2)cc1 | 42.7 µM | 158 µM | – |
| C/C=C(/C)C(=O)O[C@H](C[C@@H](C)[C@H]1CC(c2ccoc2)OC1=O)[C@@]1(C)C(=O)CCC2O[C@]21C (stereo partly specified) | > 200 µM | > 200 µM | – |
| COc1cc(N=Nc2ccccc2C(=O)O)cc(/C=N\NNC(N)=S)c1O | > 67.6 µM | 32.4 µM | – |
| CCOC(=O)C(=O)Nc1c(CC)cccc1C(C)C | > 355 µM | > 355 µM | – |
| O=C1CCC(=O)c2ccccc2N1 | > 1020 µM | > 1020 µM | – |
| CNC1C(O)C(OC2C(N)CC(N)C(OC3OC(CN)=CCC3N)C2O)OCC1(C)O (stereo unspecified) | – | – | inactive |
| CC1OC(OC2C(O[C@H]3CC[C@@]4(C)[C@@H](CC[C@@H]5[C@@H]4CC[C@]4(C)[C@@H]6[C@H](C[C@@H]54)O[C@]4(CC[C@@H](C)CO4)[C@H]6C)C3)OC(CO)C(OC3OC(CO)C(O)C(OC4OCC(O)C(O)C4O)C3OC3OCC(O)C(O)C3O)C2O)C(O)C(O)C1O (stereo partly specified) | > 2 µM | 0.832 µM | – |
| Cc1ccc2c(c1)C(=O)C1(C2)Cc2c(C)cccc2C1=O (stereo unspecified) | > 200 µM | > 200 µM | – |
| C[CH2][Sn]([CH2]C)([O]C(=O)c1ccccc1OC)[O][Sn]([CH2]C)([CH2]C)[O]C(=O)c1ccccc1OC | > 38.9 µM | 29.5 µM | – |
| O=C(Nc1ccc(/C=C\c2ccc(NC(=O)c3ccc4ccccc4c3O)cc2S(=O)(=O)O)c(S(=O)(=O)O)c1)c1ccc2ccccc2c1O | 126 µM | > 200 µM | – |
| CCOc1ccc(N=Cc2c3ccccc3nc3ccccc23)cc1 | – | – | inactive |
| CC[C@@]1(OC(=O)CCC(=O)O)C(=O)OCc2c1cc1n(c2=O)Cc2cc3ccccc3nc2-1 | > 10 µM | 0.00708 µM | – |
| Cn1cnc([N+](=O)[O-])c1Sc1nnc(-c2cccnc2)n1C | > 794 µM | 6.61 µM | – |
| C=C(C)C(=O)OC1CC2=CC(CC3(C)OC3C3OC(=O)C(=C)C13)OC2=O (stereo unspecified) | > 200 µM | 2.4 µM | – |
| NCCCSCC(=O)O | – | – | inactive |
